Measured values as given in patent US11932897B2, “Biosynthesis of curcuminoids in mammalian cells” (University of Kentucky Research Foundation, priority 2018, dated 2024).

Key:
[1] = system: radiation-induced oral mucositis; assay: Syrian hamster model of radiation-induced oral mucositis; conditions: sustained presence of curcumin from in vivo biosynthesis, versus irradiated hamsters without treatment or with positive control; 60 Gy
Description: Briefly, the hamster is anesthetized, the left cheek pouch is clamped between acrylic sheets to hold it in place, and each cheek pouch is exposed to 60 Gy total irradiation in a linear accelerator (LINAC). The use of the LINAC system provides gamma radiation exposure, is clinically relevant, and provides tight control of the radiation dose, reducing animal-to-animal exposure differences. For up to three weeks after irradiation, the hamsters is weighed daily and cheeks extracted to evaluate injury based on a well-established, validated scale (Table 2).
Equal numbers of male and female hamsters are randomly divided into groups (n=8). Negative controls comprise non-irradiated, non-treated; nonirradiated, treated; and irradiated, nontreated groups. […] The treatment groups are determined based on the curcuminoid production levels, bioavailability, and duration of production achievable in the in vivo systems described above. A preferred treatment is animals stably producing curcuminoids following AAV8-mediated transfection of liver and providing therapeutically relevant curcuminoid concentrations in circulation. The primary alternative is local AAV-mediated transfection of tissues in the cheek pouch. Another alternative approach is HEK293-ddCCM or HEK-CCM cells encapsulated in lysine/alginate spheres and implanted s.c. or i.p. in tissue cages.

[2] = cited from earlier work
[3] = system: reactive oxygen species (ROS) within cells; assay: CellROX Deep Red assay of cellular oxidative stress after H2O2 treatment; assay type: cell-based; conditions: for effect on CellROX fluorescence / oxidation (in words): 1 mM H2O2 for 30 min, then CellROX Deep Red, transfected cells in substrate-supplemented media, or supplemented media alone
Description: Cells were exposed to 1 mM H2O2 for 30 min before incubation with CellROX Deep Red. Blank: untransfected cells. F: ferulic acid-supplemented media. P: p-courmaric acid-supplemented media. pGL3: luciferase-encoding plasmid.
Additionally, the antioxidant potential of heterologously produced curcuminoids was investigated using CellROX Deep Red (Invitrogen, Carlsbad, Calif.), a fluorogenic probe for cellular oxidative stress. The cell-permeable CellROX dye is non-fluorescent in its reduced state but becomes highly fluorescent upon oxidation by reactive oxygen species (ROS) within cells. Cells were treated with 1 mM H2O2 to induce oxidative stress and subsequently incubated with CellROX before quantifying the resulting fluorescence (FIG. 11).

[4] = in vivo; cited from earlier work

Compound	severity and duration of OM [1]	half-life in plasma [2]	reduction in CellROX fluorescence ([3]; cells producing CCM from ferulic acid (4CL1/DCS/CURS1), 1 mM H2O2 for 30 min before CellROX Deep Red)	oral bioavailability [4]	effect on CellROX fluorescence / oxidation (in words) [3]
COc1cc(/C=C/C(=O)CC(=O)/C=C/c2ccc(O)c(OC)c2)ccc1O [CCM, curcumin]	significantly reduces severity and duration of OM	relatively short	37%	~1%	–
COc1cc(/C=C/C(=O)O)ccc1O [ferulic acid]	–	–	–	–	Neither the presence of p-coumaric acid nor ferulic acid, nor transfection with pGL3 (encoding luciferase), had any effect
O=C(O)/C=C/c1ccc(O)cc1 [p-coumaric acid]	–	–	–	–	Neither the presence of p-coumaric acid nor ferulic acid, nor transfection with pGL3 (encoding luciferase), had any effect
